Measurements published in patent US6916844B2, “Hydroxy pyranone derivative and preparation method thereof” (Amorepacific Corporation, priority 2002, dated 2005).

Columns and labels:
white guinea pigs = assay: Phototoxicity test; format: in vivo; conditions: 1% (w/v) solution, UVA 15 J/cm^2, observed at 24, 48 and 72 hours; for Phototoxic index: below 0.5 = no phototoxicity
Method: This test was performed for ten (10) white guinea pigs whose hairs on both sides of the backs were cut, and fixed. On the back of the guinea pig, six (6) test sites measuring 2.5 cm×2.5 cm, three (3) per each side, were sectioned. Right sites were prepared as controls with no irradiation (UV non-irradiation sites) and left sites were irradiated (UV irradiation sites). Vehicle (1,3-butylene glycol:ethanol=7:3) was used as a negative control, and 0.1% concentration of 8-MOP (methoxypsoralene) was used as a positive control; and 1% (w/v) solutions of the compounds of Examples 1˜6 were applied to either site with an amount of […] for each site. 30 minutes later, right sites were shielded with aluminum foil and UVA(320˜380 nm) was irradiated at a distance of about 10 cm therefrom with Waldmann to the final energy of 15 J/cm^2. After 24, 48 and 72 hours elapsed, skin response of guinea pig was observed. Erythema and edema were scored from 0 to 4 points as shown in the Table 3, and skin response was evaluated by summing the scores. Maximum scores were selected when measured on each elapsed time, i.e. 24, 48 and 72 hours, and irritation index was calculated according to the following equation 2. Then, phototoxic index was calculated according to the following equation 3.
[Equation 2] Irritation index=(Maximum of erythema+Maximum of edema)/Number of animals [Equation 3] Phototoxic index=(Irritation index of UV irradiation site)−(Irritation index of UV non-irradiation site)

[1] = system: healthy females and males; assay: Human patch test; format: in vivo; conditions: 1% in patch base; for Average Response (n = 30): calculated by equation 4, below 1 = no irritation; for Number of the subjected showing response, 24 hours later, − (No visible response) / Number of the subjected showing response, 24 hours later, ± (Mild erythema) / Number of the subjected showing response, 24 hours later, + (Intense erythema) / Number of the subjected showing response, 24 hours later, + + (Intense erythema with edema) / Number of the subjected showing response, 24 hours later, + + + (Intense erythema with edema and vesicle): n = 30, 24 hours later; for Number of the subjected showing response, 24 hours later, − (No visible response) / Number of the subjected showing response, 48 hours later, − (No visible response): grade 0; for Number of the subjected showing response, 24 hours later, ± (Mild erythema) / Number of the subjected showing response, 48 hours later, ± (Mild erythema): grade 1; for Number of the subjected showing response, 24 hours later, + (Intense erythema) / Number of the subjected showing response, 48 hours later, + (Intense erythema): grade 2; for Number of the subjected showing response, 24 hours later, + + (Intense erythema with edema) / Number of the subjected showing response, 48 hours later, + + (Intense erythema with edema): grade 3; for Number of the subjected showing response, 24 hours later, + + + (Intense erythema with edema and vesicle) / Number of the subjected showing response, 48 hours later, + + + (Intense erythema with edema and vesicle): grade 4; for Number of the subjected showing response, 48 hours later, − (No visible response) / Number of the subjected showing response, 48 hours later, ± (Mild erythema) / Number of the subjected showing response, 48 hours later, + (Intense erythema) / Number of the subjected showing response, 48 hours later, + + (Intense erythema with edema) / Number of the subjected showing response, 48 hours later, + + + (Intense erythema with edema and vesicle): n = 30, 48 hours later
Method: This test was performed for thirty (30) healthy females and males aged on average 24.8 years and having no experience of hypersensitivity, according to method of CTFA Guideline (The Cosmetic, Toiletry and Fragrance Association. Inc. Washington, D.C., 20023, 1991). Each compound of Examples 1˜6 was dissolved in patch base having the composition of Table 6 to be 1% concentration as for test materials, and 20 μl of each test materials was dropped into a Finn chamber respectively, then attached to the forearm of the subject and fixed with a micropore tape. After 24 hours of patching, the patches were removed and the test sites were marked with marking pen. The observations of the test sites were made after 24 and 48 hours from the patching.
The average response of Table 8 was calculated by the following equation 4. [formula]

Human fibroblasts [2] = assay: Collagenase-inhibiting effect (collagenase expression, ELISA kit); format: cell-based; conditions: 10^-4 M, 24 hours, relative to untreated control group = 100
Method: The collagenase-inhibiting effect of hydroxy pyranone derivatives obtained in Examples 1˜6 was compared with those of retinol and retinoic acid.
Human fibroblasts were cultured in Dulbecco's Modified Eagle's Medium (DMEM) supplemented with 2.5% fetal bovine serum. The fibroblasts were seeded into a 96-well microtiter plate to a density of 5,000 cells/well, and then cultured to 70˜80% of growth. The plate was treated with test samples at a concentration of 10^−4M for 24 hours, then the cultured medium and the cells were raked up and recovered. From the recovered culture, collagenase production was measured with collagenase kit (Catalog #: RPN 2610) commercialized by Amersham Pharmacia Biotech. First, the recovered culture was added into a 96-well plate wherein primary collagenase antibodies were uniformly spread, and then antigen-antibody reaction was performed in an incubator for 3 hours. Later, secondary collagenase antibodies bonded with chromophore were added to the 96-well plate and reacted for 15 minutes. Then, color former was added thereto in order to induce development at the room temperature for 15 minutes, and 1M of sulfuric acid was added to stop the reaction. The reaction solution became yellow, and the color density depends on the progress of the reaction. The absorbance of the yellow 96-well plate was measured at 405 nm with absorptiometer. The expression of collagenase was calculated by the following equation 1. No sample was treated in the control group.
[Equation 1] The expression of collagenase (%)=[(Absorbance of test group)/(Absorbance of control group)]×100
The expression of collagenase was evaluated as a relative value compared with that of the control group of which the expression of collagenase was set to be 100.

Human fibroblasts [3] = assay: Effect on biosynthesis of collagen (procollagen type (I) ELISA); format: cell-based; conditions: 10^-4 M, 24 hours, relative to untreated control group = 100
Method: The effect of the hydroxy pyranone derivatives obtained in Examples 1˜6 on biosynthesis of collagen was compared with those of retinol and retinoic acid.
Human fibroblasts were seeded into a 24-well plate to a density of 10^5 cells/well and then cultured to 90% of growth. The plate was washed with PBS (phosphate buffered saline) and treated with test samples at a concentration of 10^−4M, and then incubated in a CO2 incubator for 24 hours. From its supernatant, procollagen production was measured with procollagen type (I) ELISA kit. The biosynthesis of collagen was evaluated as a relative value compared with that of the control group, which is not treated with sample and of which the value of biosyntheis of collagen was set to be 100.

rabbits = assay: Primary skin irritation test on animals (Draize P.I.I.); format: in vivo; conditions: 1% in 1,3-butylene glycol:ethanol=7:3, 0.5 ml, observed 24 and 72 hours later
Method: This test was performed for six (6) healthy male rabbits whose hairs on both sides of the backs were cut. The compounds of Examples 1˜6 were dissolved in 1,3-butylene glycol:ethanol=7:3, to obtain 1% concentration of test samples. 0.5 ml of each test samples were applied to right side area of 2.5 cm×2.5 cm. No sample was treated on left side as a control. 24 hours and 72 hours later, skin abnormality such as erythema, crust and edema was observed. Based on the score of skin response, skin irritation was estimated according to Draize's P.I.I. (Primary Irritation Index) and compared with that of retinoic acid.

| Number of the subjected showing response, 24 hours later, − (No visible response) [1] | Number of the subjected showing response, 24 hours later, ± (Mild erythema) [1] | Number of the subjected showing response, 24 hours later, + (Intense erythema) [1] | Number of the subjected showing response, 24 hours later, + + (Intense erythema with edema) [1] | Number of the subjected showing response, 24 hours later, + + + (Intense erythema with edema and vesicle) [1] | Number of the subjected showing response, 48 hours later, − (No visible response) [1] | Number of the subjected showing response, 48 hours later, ± (Mild erythema) [1] | Number of the subjected showing response, 48 hours later, + (Intense erythema) [1] | Number of the subjected showing response, 48 hours later, + + (Intense erythema with edema) [1] | Number of the subjected showing response, 48 hours later, + + + (Intense erythema with edema and vesicle) [1] | Expression of collagenase (%) (Human fibroblasts [2]) | Compound | Evaluation (phototoxicity) (white guinea pigs) | Phototoxic index (white guinea pigs) | Average Response (n = 30) [1] | Biosynthesis of collagen (%) (Human fibroblasts [3]) | Evaluation (skin irritation) (rabbits) | P. I. I. (Primary Irritation Index) (rabbits) |
| --- | --- | --- | --- | --- | --- | --- | --- | --- | --- | --- | --- | --- | --- | --- | --- | --- | --- |
| 28 | 2 | 0 | 0 | 0 | 30 | 0 | 0 | 0 | 0 | 83 | O=C(OCc1cc(=O)c(O)co1)c1ccc2c(c1)OCO2 [Compound of Ex. 1, (5-hydroxy-4-oxo-4H-pyran-2-yl)methyl 2H-benzo [3,4-d] 1,3-dioxolan-5-carboxylate] | No phototoxicity | 0 | 0.83 | 118 | No irritation | 0.375 |
| 30 | 0 | 0 | 0 | 0 | 29 | 1 | 0 | 0 | 0 | 81 | O=C(Oc1cc(=O)c(O)co1)c1ccc2c(c1)OCCO2 [Compound of Ex. 2, (5-hydroxy-4-oxo-4H-pyran-2-yl) 2H,3H-benzo [3,4-e] 1,4-dioxane-6-carboxylate] | No phototoxicity | 0 | 0.42 | 121 | No irritation | 0.345 |
| 29 | 1 | 0 | 0 | 0 | 30 | 0 | 0 | 0 | 0 | 77 | O=C(/C=C/c1ccc2c(c1)OCCO2)COc1cc(=O)c(O)co1 [Compound of Ex. 4, 2-((3E)-4-(2H,3H-benzo [3,4-e] 1,4-dioxan-6-yl)-2-oxobut-3-enyloxy)-5hydroxy-4-pyran-4-one] | No phototoxicity | 0 | 0.42 | 122 | No irritation | 0.350 |
| 30 | 0 | 0 | 0 | 0 | 30 | 0 | 0 | 0 | 0 | 84 | O=c1cc(/C=C/c2ccc3c(c2)OCCO3)occ1O [Compound of Ex. 6, 2-((1E)-2-(2H,3H-benzo [3,4-e] 1,4-dioxan-6-yl)vinyl)-5-hydroxy-4H-pyran-4-one] | No phototoxicity | 0 | 0.00 | 115 | No irritation | 0.315 |

Continued, compound first:

| Compound | Number of the subjected showing response, 24 hours later, − (No visible response) [1] | Number of the subjected showing response, 24 hours later, ± (Mild erythema) [1] | Number of the subjected showing response, 24 hours later, + (Intense erythema) [1] | Number of the subjected showing response, 24 hours later, + + (Intense erythema with edema) [1] | Number of the subjected showing response, 24 hours later, + + + (Intense erythema with edema and vesicle) [1] | Number of the subjected showing response, 48 hours later, − (No visible response) [1] | Number of the subjected showing response, 48 hours later, ± (Mild erythema) [1] | Number of the subjected showing response, 48 hours later, + (Intense erythema) [1] | Number of the subjected showing response, 48 hours later, + + (Intense erythema with edema) [1] | Number of the subjected showing response, 48 hours later, + + + (Intense erythema with edema and vesicle) [1] | Expression of collagenase (%) (Human fibroblasts [2]) | Evaluation (phototoxicity) (white guinea pigs) | Phototoxic index (white guinea pigs) | Average Response (n = 30) [1] | Biosynthesis of collagen (%) (Human fibroblasts [3]) | Evaluation (skin irritation) (rabbits) | P. I. I. (Primary Irritation Index) (rabbits) |
| --- | --- | --- | --- | --- | --- | --- | --- | --- | --- | --- | --- | --- | --- | --- | --- | --- | --- |
| O=c1cc(/C=C/c2ccc3c(c2)OCO3)occ1O [Compound of Ex. 5, 2-((1E)-2-(2H,3H-benzo [3,4-d] 1,3-dioxolan-5-yl)vinyl)-5-hydroxy-4H-pyran-4-one] | 30 | 0 | 0 | 0 | 0 | 30 | 0 | 0 | 0 | 0 | 88 | No phototoxicity | 0 | 0.00 | 116 | No irritation | 0.375 |
| CC1=C(/C=C/C(C)=C/C=C/C(C)=C/C(=O)O)C(C)(C)CCC1 [Retinoic acid, reference compound] |  |  |  |  |  |  |  |  |  |  | 75 |  |  |  | 125 | Light irritation | 1.830 |
| CC1=C(/C=C/C(C)=C/C=C/C(C)=C/CO)C(C)(C)CCC1 [Retinol, reference compound] |  |  |  |  |  |  |  |  |  |  | 82 |  |  |  | 120 |  |  |
